Source: patent US12162901B2, “N-acetylated sialic acids and related sialosides” (priority 2016, dated 2024)

Columns and labels:
influenza C virus = settings: background statement; cited from earlier work
human CD22-Fc/Siglec-2 = assay: Feeding of free sialic acids to BJA-B K20 cells, probing with human CD22-Fc, flow cytometry; type: cell-based; settings: 3 mM, 3 days of feeding
Experimental: Cell Culture and Sugar Supplementation.
Flow Cytometry. Cells were washed with PBS and incubated with 10 μg/mL of PToV probes in PBS with 1% BSA and 10 mM EDTA for 30 minutes on ice. Subsequently, cells were washed with PBS and incubated with PE goat anti-human IgG antibody for 30 minutes on ice. After an additional washing step, the cells were analyzed by FACSCalibur (BD).
After 3 days of feeding, BJA-B K20 cells were probed with human CD22-Fc/Siglec-2 to detect ligands (FIG. 7). […] However, when the cells were grown in the presence of Neu5Ac9NAc, the expression of the CD22 ligand was minimal (FIG. 7C). […] This supports previous observations that human CD22-Fc recognizes α2-6-linked sialosides with Neu5Ac or N-glycolylneuraminic acid (Neu5Gc) as the preferred naturally existing sialic acid form and 9-O-acetyl modification on sialic acid blocks the binding.

BJA-B K20 cells [1] = assay: Feeding of free sialic acids to BJA-B K20 cells, DMB derivatization and HPLC of membrane sialic acids; settings: 1 mM for 3 days; sialic acids released with Vibrio cholerae neuraminidase
BJA-B K20 cells [2] = assay: Feeding of free sialic acids to BJA-B K20 cells, PToV probes, flow cytometry; type: cell-based, human; settings: 1 mM free sialic acid, three days of feeding

CC(=O)NC[C@@H](O)[C@@H](O)[C@@H]1OC(O)(C(=O)O)C[C@H](O)[C@H]1NC(C)=O (stereo partly drawn) [Neu5Ac9NAc, 5,9-Diacetamido-3,5,9-Trideoxy-D-glycero-D-galacto-2-nonulopyranosylonic Acid]
binding to influenza C virus and fate under hemagglutinin-esterase (influenza C virus): mimic Neu5,9Ac2 in binding to influenza C virus without being destroyed by esterase activity | expression of CD22 ligand on fed cells (human CD22-Fc/Siglec-2): minimal | incorporation on the cell membrane (DMB-HPLC) (BJA-B K20 cells [1]): showed incorporation | cell surface incorporation detected with PToV probe (BJA-B K20 cells [2]): detected on the cell surface
